Measurements reported in PMC8046226, “Koala cathelicidin PhciCath5 has antimicrobial activity, including against Chlamydia pecorum” (PLoS ONE, 2021).
Converted amounts (≈) assume the structure as drawn. Read-outs that look alike come from different tables or passages of the source. Residues, ends and D or L forms follow the SMILES beside them. No end group written: not given here.

How the values were obtained:
C. pecorum IPTaLE = experiment: Chlamydia pecorum antimicrobial susceptibility (elementary body inactivation, IFU/mL); format: cell-based; details: 125, 250 and 500μg/mL; less than half an order of magnitude difference in chlamydial inclusions compared with the control
Experimental: (§1) C. pecorum IPTaLE and MarsBar were cultured in mouse McCoy B cells, on DMEM supplemented with 10% foetal calf serum (FCS), 0.1mg/mL streptomycin and 0.05mg/mL gentamicin at 37°C in a 5% CO2 atmosphere. Cell lines were routinely tested for mycoplasma contamination every 2 months. Prior to performing antimicrobial susceptibility assays, 96-well plates were seeded with 30,000 host cells per well 24 hours prior to chlamydial infection as described previously. For the antimicrobial assays, koala cathelicidin mature peptides, PhciCath1, 2, 3, 5 and 6, were solubilized in water for cell culture with 0.01% acetic acid, and two-fold dilutions were made in sucrose-phosphate-glutamic acid (SPG) media from 1mg to 250μg/mL, in triplicate. Cathelicidin containing wells were diluted one in two with C. pecorum IPTaLE and MarsBar EBs and incubated for 2 hours at 37°C, giving a final cathelicidin concentration of 500, 250 and 125μg/mL. A negative SPG only control was included. To exclude the possibility of cathelicidin toxicity to McCoy cells, cathelicidin dilutions were removed by centrifugation and C. pecorum EBs re-suspended in DMEM supplemented with 10% FCS, 0.1mg/mL streptomycin and 0.05mg/mL gentamycin. The suspension was used to infect a McCoy B ATCC CRL-1696 cell monolayer at a Multiplicity of Infection (MOI) of 0.6 as described previously. […]

C. pecorum MarsBar = experiment: as above; format: cell-based; details: 125, 250 and 500μg/mL; less than half an order of magnitude difference in chlamydial inclusions compared with the control
Experimental: as §1

C. krusei ATCC 6258 = experiment: Broth microdilution susceptibility assay (MIC); format: cell-based, Candida krusei; details: broth microdilution (CLSI), yeast nitrogen base (YNB) for fungi, 35°C, 20–48 hours
Experimental: (§2) Antimicrobial activity was determined against a range of bacteria and fungi from humans and animals using a broth microdilution susceptibility assay according to clinical laboratory standards institute (CLSI) guidelines in 96 well polypropylene plates as described previously. Briefly, cathelicidins were dissolved in DMSO and serially diluted, in cation-adjusted Mueller Hinton Broth (MH II B) with or without 10% lysed horse blood for bacteria, and yeast nitrogen base (YNB) for fungi. Cathelicidin concentrations ranged between 64μg/mL and 0.125μg/mL in a final volume of 100μL. For all bacteria and fungi tested, ampicillin, tetracycline and fluconazole were included as positive controls, in addition to a media-only control and growth control (no inhibitor). Bacteria and fungi were sub-cultured 20–24 hours prior to the test, suspended in saline and their concentration adjusted to a 0.5 McFarland standard. Microorganisms were then diluted to a concentration of 0.5–1.0x10^6 cells/mL, with colony counts performed to confirm microorganism density, and 100μL was dispensed into the wells of the cathelicidin dilution plate. […] Antimicrobial activity was expressed as minimum inhibitory concentration (MIC), which was defined as the lowest concentration of cathelicidin preventing visible bacterial growth, relative to the no-drug control. […]

MRSA (animal isolate) = format: cell-based, Staphylococcus aureus; details: broth microdilution (CLSI), MH II B with magnesium and calcium cations, 35°C, 20–48 hours
Experimental: as §2

S. salivarius = format: cell-based
Experimental: (§3) Antimicrobial activity was determined against a range of bacteria and fungi from humans and animals using a broth microdilution susceptibility assay according to clinical laboratory standards institute (CLSI) guidelines in 96 well polypropylene plates as described previously. Briefly, cathelicidins were dissolved in DMSO and serially diluted, in cation-adjusted Mueller Hinton Broth (MH II B) with or without 10% lysed horse blood for bacteria, and yeast nitrogen base (YNB) for fungi. Cathelicidin concentrations ranged between 64μg/mL and 0.125μg/mL in a final volume of 100μL. For all bacteria and fungi tested, ampicillin, tetracycline and fluconazole were included as positive controls, in addition to a media-only control and growth control (no inhibitor). Bacteria and fungi were sub-cultured 20–24 hours prior to the test, suspended in saline and their concentration adjusted to a 0.5 McFarland standard. Microorganisms were then diluted to a concentration of 0.5–1.0x10^6 cells/mL, with colony counts performed to confirm microorganism density, and 100μL was dispensed into the wells of the cathelicidin dilution plate. All plates were incubated at 35°C for 20–48 hours depending on the strain. Antimicrobial activity was expressed as minimum inhibitory concentration (MIC), which was defined as the lowest concentration of cathelicidin preventing visible bacterial growth, relative to the no-drug control. The same microdilution susceptibility assay was performed using Mueller Hinton Broth without the addition of the divalent cations calcium and magnesium (MHB), to test the effect of the cations on PhciCath5 activity against the ATCC strains E. coli 25922 and S. aureus 29213.

S. pneumoniae ATCC49619 = format: cell-based
Experimental: as §3

E. coli ATCC25922 = format: cell-based
Experimental: as §3

S. oralis = format: cell-based
Experimental: as §3

S. dysgalactiae = format: cell-based
Experimental: as §3

P. aeruginosa ATCC27853 = format: cell-based
Experimental: as §3

S. pyogenes ATCC19615 = format: cell-based
Experimental: as §3

S. mutans = format: cell-based
Experimental: as §3

S. aureus ATCC29213 = format: cell-based
Experimental: as §3

S. agalactiae ATCC12386 = format: cell-based
Experimental: as §3

S. lutetiensis = format: cell-based
Experimental: as §3

[1] = tested on: C. parapsilosis ATCC 22019; experiment: Broth microdilution susceptibility assay (MIC); format: cell-based, Candida parapsilosis; details: broth microdilution (CLSI), yeast nitrogen base (YNB) for fungi, 35°C, 20–48 hours
Experimental: as §2

[2] = tested on: S. aureus (animal isolate); experiment: Broth microdilution susceptibility assay (MIC); format: cell-based; details: broth microdilution (CLSI), MH II B with magnesium and calcium cations, 35°C, 20–48 hours
Experimental: as §3

[3] = tested on: P. aeruginosa (animal isolate); experiment: Broth microdilution susceptibility assay (MIC); format: cell-based; details: broth microdilution (CLSI), MH II B with magnesium and calcium cations, 35°C, 20–48 hours
Experimental: as §3

E. coli (animal isolate) = experiment: Broth microdilution susceptibility assay (MIC); format: cell-based; details: broth microdilution (CLSI), MH II B with magnesium and calcium cations, 35°C, 20–48 hours
Experimental: as §3

[4] = tested on: P. multocida (animal isolate); experiment: Broth microdilution susceptibility assay (MIC); format: cell-based; details: broth microdilution (CLSI), MH II B with magnesium and calcium cations, 35°C, 20–48 hours
Experimental: as §3

[5] = tested on: L. monocytogenes (animal isolate); experiment: Broth microdilution susceptibility assay (MIC); format: cell-based; details: broth microdilution (CLSI), MH II B with magnesium and calcium cations, 35°C, 20–48 hours
Experimental: as §3

C. albicans = experiment: Broth microdilution susceptibility assay (MIC); format: cell-based; details: broth microdilution (CLSI), yeast nitrogen base (YNB) for fungi, 35°C, 20–48 hours
Experimental: as §3

S. equi (animal isolate) = experiment: Broth microdilution susceptibility assay (MIC); format: cell-based; details: broth microdilution (CLSI), MH II B with magnesium and calcium cations, 35°C, 20–48 hours
Experimental: as §3

C. glabrata = experiment: Broth microdilution susceptibility assay (MIC); format: cell-based; details: broth microdilution (CLSI), yeast nitrogen base (YNB) for fungi, 35°C, 20–48 hours
Experimental: as §3

[6] = tested on: K. pneumoniae (animal isolate); experiment: Broth microdilution susceptibility assay (MIC); format: cell-based; details: broth microdilution (CLSI), MH II B with magnesium and calcium cations, 35°C, 20–48 hours
Experimental: as §3

[7] = tested on: S. agalactiae (animal isolate); experiment: Broth microdilution susceptibility assay (MIC); format: cell-based; details: broth microdilution (CLSI), MH II B with magnesium and calcium cations, 35°C, 20–48 hours
Experimental: as §3

C. trachomatis = details: cited from earlier work
From the text: Koala cathelicidin PhciCath5 inactivated C. pecorum MarsBar and IPTaLE elementary bodies (EB) and was the only peptide tested that caused biologically and statistically significant reductions in chlamydial inclusions. […] Timing of cathelicidin release from immune and epithelial cells within the host may not enable direct interaction with EB. […] Indeed, proteases secreted by this C. trachomatis neutralise LL-37 anti-chlamydial activity, thereby evading AMP attack and ensuring extracellular EB survival. ...

Compound: CC[C@H](C)[C@H](NC(=O)[C@H](CCCNC(=N)N)NC(=O)[C@H](CCCCN)NC(=O)[C@H](Cc1ccccc1)NC(=O)[C@H](CCCNC(=N)N)NC(=O)[C@H](CC(C)C)NC(=O)[C@@H]1CCCN1C(=O)[C@H](CCC(=O)O)NC(=O)[C@@H]1CCCN1C(=O)[C@@H]1CCCN1)C(=O)N[C@@H](CCCNC(=N)N)C(=O)N[C@@H](CS)C(=O)N[C@@H](CC(C)C)C(=O)N[C@@H](CC(N)=O)C(=O)NCC(=O)N[C@@H](CCCNC(=N)N)C(=O)N[C@@H](CCCCN)C(=O)N[C@@H](CS)C(=O)N[C@@H](CC(N)=O)C(=O)N[C@@H](Cc1ccc(O)cc1)C(=O)N[C@@H](Cc1c[nH]cn1)C(=O)N[C@@H](CC(N)=O)C(=O)N[C@@H](CC(C)C)C(=O)N[C@@H](CC(C)C)C(=O)N[C@@H](CC(C)C)C(=O)N[C@H](C(=O)N[C@H](C(=O)N[C@H](C(=O)N1CCC[C@H]1C(=O)N[C@@H](Cc1c[nH]cn1)C(=O)N[C@@H](Cc1c[nH]c2ccccc12)C(=O)N[C@@H](CCCNC(=N)N)C(=O)N[C@H](C(=O)N1CCC[C@H]1C(=O)N[C@@H](CCCCN)C(=O)NCC(=O)N[C@@H](CCCCN)C(=O)O)[C@@H](C)CC)C(C)C)[C@@H](C)CC)[C@@H](C)O [PhciCath3] (H-PPEPLRFKRIRCLNGRKCNYHNLLLTIVPHWRIPKGK-OH)
- activity against C. pecorum IPTaLE up to 500ug/mL (C. pecorum IPTaLE): ineffective
- activity against C. pecorum MarsBar up to 500ug/mL (C. pecorum MarsBar): ineffective

Compound: CC[C@H](C)[C@H](NC(=O)CNC(=O)CNC(=O)[C@H](CCCNC(=N)N)NC(=O)[C@@H](N)CCCCN)C(=O)N[C@@H](Cc1c[nH]c2ccccc12)C(=O)N[C@@H](CCCCN)C(=O)N[C@@H](CC(C)C)C(=O)N[C@H](C(=O)N[C@@H](CCCNC(=N)N)C(=O)N1CCC[C@H]1C(=O)N[C@@H](CC(C)C)C(=O)NCC(=O)N[C@@H](CCCNC(=N)N)C(=O)NCC(=O)N[C@@H](C)C(=O)NCC(=O)N[C@@H](CCCNC(=N)N)C(=O)N[C@H](C(=O)N[C@@H](CC(C)C)C(=O)N[C@@H](CCCNC(=N)N)C(=O)N[C@@H](Cc1c[nH]cn1)C(=O)N[C@@H](Cc1ccccc1)C(=O)N[C@@H](Cc1c[nH]cn1)C(=O)N[C@H](C(=O)N[C@@H](CC(=O)O)C(=O)N[C@@H](Cc1ccccc1)C(=O)N[C@@H](CS)C(=O)NCC(=O)N[C@@H](CC(N)=O)C(=O)N[C@@H](CS)C(=O)O)[C@@H](C)CC)[C@@H](C)CC)[C@@H](C)CC [PhciCath5] (H-KRGGIWKLIRPLGRGAGRILRHFHIDFCGNC-OH)
- MIC (C. krusei ATCC 6258): 64 µg/mL (≈ 18 µM)
- MIC (MRSA (animal isolate)): 16 µg/mL (≈ 4.51 µM)
- MIC (S. salivarius): 64 µg/mL (≈ 18 µM)
- MIC (S. pneumoniae ATCC49619): >64 µg/mL
- MIC (E. coli ATCC25922): 64 µg/mL (≈ 18 µM)
- MIC (in brackets) (E. coli ATCC25922): 11 µg/mL (≈ 3.1 µM)
- MIC (S. oralis): >64 µg/mL
- MIC (S. dysgalactiae): >64 µg/mL
- MIC (P. aeruginosa ATCC27853): >64 µg/mL
- MIC (S. pyogenes ATCC19615): 64 µg/mL (≈ 18 µM)
- MIC (S. mutans): >64 µg/mL
- MIC (S. aureus ATCC29213): 16 µg/mL (≈ 4.51 µM)
- MIC (in brackets) (S. aureus ATCC29213): 11 µg/mL (≈ 3.1 µM)
- MIC (S. agalactiae ATCC12386): 64 µg/mL (≈ 18 µM)
- MIC (S. lutetiensis): >64 µg/mL
- MIC [1]: 32 µg/mL (≈ 9.02 µM)
- MIC [2]: 8 µg/mL (≈ 2.25 µM)
- MIC [3]: >64 µg/mL
- MIC (E. coli (animal isolate)): 16 µg/mL (≈ 4.51 µM)
- MIC [4]: >64 µg/mL
- MIC [5]: 64 µg/mL (≈ 18 µM)
- MIC (C. albicans): >64 µg/mL
- MIC (S. equi (animal isolate)): >64 µg/mL
- MIC (C. glabrata): >64 µg/mL
- MIC [6]: >64 µg/mL
- MIC [7]: 64 µg/mL (≈ 18 µM)

Compound: PG-1: pig protegrin PG-1, a eutherian cathelicidin (RGGRLCYCRRRFCVCVGR; ends and bridges not checked; cysteine pairing not given here; UniProt P32194 131-148, looked up)
- concentration which reduced the infectivity of C. trachomatis (C. trachomatis; single round of infection): 1.25 µg/mL
- reduction in infectivity (C. trachomatis; treatment of extracellular EBs): ~100%
- reduction in infectivity (C. trachomatis; treatment of intracellular C. trachomatis): 67%
